In US12098119B2, “Compound used as SIRT6 small-molecule allosteric activator and pharmaceutical composition thereof” (Nutshell BioTech (Shanghai) Co., Ltd., priority 2017, dated 2024):

Legend:
Assay type in all cases: cell-based
[1] = test system: H3K9Ac and H3K56Ac in SW480 cells; test: Western blot of SIRT6 deacetylation substrates in SW480 cells
Text: (§1) A Western Blot experimental method is used to detect the effect of SIRT6 small molecule allosteric activator as active ingredients in Table 1 and Table 2 for SIRT6 deacetylated active substrates H3K9 AC and H3K56 AC in cell cells.
(§2) HEK-293 T cells, Bel7405 cells, PLC/PFR/5 cells, Bel 7402 cells, HCT116 cells, HT29 cells, SW 480 cells, and HCT116 cells are test objects.
(§3) Step 1: the compound mother liquor (solvent is DMSO) listed in Table 1 and Table 2, the gradient concentration comprising 0.5 μmol/L, 1 μmol/L, 5 μmol/L, 10 μmol/L, 25 μmol/L and 50 μmol/L;
(§4) Step 3: the cell state was good after 24 hours, the fresh culture solution (2 mL) was replaced, and the mother liquor configured above is added to the cell culture solution of the experimental group according to the ratio of 1:1000; the same volume of DMSO (2 ul) is added to the cell culture solution of the control group;
(§5) Step 4: continue to culture for a certain time (12 hours, 24 hours, 48 hours or 60 hours).
(§6) 1) for each group of cells at the end of culture, the culture medium in each well is discarded and washed with 1*PBS once;
(§7) 2) add 150 μl SDS lysate containing bromophenol blue into each well, mix well and transfer to 1.5 ml EP tube respectively;
(§8) 3) store at 95° C. for 5 min, then on ice for 5 min, repeat three times;
(§9) 4) the supernatant is centrifuged at 12000×g for 5 min for Western blot detection.

[2] = test system: H3K9Ac and H3K56Ac in HCT116 cells; test: Western blot of SIRT6 deacetylation substrates in HCT116 cells
Text: as §1, §2, §3, §4, §5, §6, §7, §8, §9

[3] = test system: H3K9Ac and H3K56Ac in HT29 cells; test: Western blot of SIRT6 deacetylation substrates in HT29 cells
Text: as §1, §2, §3, §4, §5, §6, §7, §8, §9

## C[C@@H]1COCCN1C(C)(C)C [SOL-011]
[1]; 10 μmol/L, 24 hours and 48 hours, FIG. 44
  H3K9Ac and H3K56Ac (Western blot): can down regulate H3K9Ac and H3k56ac
[1]; different concentrations, 48 hours, FIG. 47
  H3K9Ac and H3K56Ac (Western blot): down regulated H3K9Ac and H3k56ac
[2]; CT116 cells, different concentrations, 48 hours, FIG. 45
  H3K9Ac and H3K56Ac (Western blot): down regulated H3K9Ac and h3k56ac
[2]; HCT116 cells, 10 μmol/L, 24 hours and 48 hours, FIG. 42
  H3K9Ac and H3K56Ac (Western blot): down regulated H3K9Ac and H3k56ac
[3]; 10 μmol/L, 24 hours and 48 hours, FIG. 43
  H3K9Ac and H3K56Ac (Western blot): down regulated H3K9Ac and H3k56ac
[3]; different concentrations, 48 hours, FIG. 46
  H3K9Ac and H3K56Ac (Western blot): down regulated H3K9Ac and H3k56ac
